ChEMBL document CHEMBL1909046, “DrugMatrix in vitro pharmacology data”

How the values were obtained:
[1] = biological target: T1, Alpha-1D adrenergic receptor (Homo sapiens, UniProt P25100); type: cell membranes, HEK293, Membrane; conditions: hek293; note: in other assays of this panel Not Active means under 50% inhibition at 10 µM
T1 sequence (P25100 whole entry): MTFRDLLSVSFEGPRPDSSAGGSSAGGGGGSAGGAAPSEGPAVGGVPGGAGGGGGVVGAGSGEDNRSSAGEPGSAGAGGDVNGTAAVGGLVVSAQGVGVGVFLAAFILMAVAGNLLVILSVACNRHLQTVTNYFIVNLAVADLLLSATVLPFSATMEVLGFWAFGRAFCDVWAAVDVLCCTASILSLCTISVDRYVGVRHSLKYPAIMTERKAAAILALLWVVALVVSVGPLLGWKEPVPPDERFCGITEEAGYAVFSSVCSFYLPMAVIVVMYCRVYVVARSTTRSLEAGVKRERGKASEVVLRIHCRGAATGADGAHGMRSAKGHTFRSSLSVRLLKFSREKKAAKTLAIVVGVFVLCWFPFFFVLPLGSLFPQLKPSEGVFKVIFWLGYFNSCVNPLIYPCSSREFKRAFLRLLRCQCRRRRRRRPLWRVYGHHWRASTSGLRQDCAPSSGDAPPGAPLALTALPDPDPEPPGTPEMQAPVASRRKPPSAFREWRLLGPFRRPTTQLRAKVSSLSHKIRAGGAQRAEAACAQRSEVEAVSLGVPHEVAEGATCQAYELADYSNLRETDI

[2] = biological target: Beta-1 adrenergic receptor (Homo sapiens, UniProt P08588); experiment: DRUGMATRIX: Adrenergic beta1 radioligand binding (ligand: [125I] Cyanopindolol); type: cell membranes, CHO-K1, Membrane; conditions: cho-k1; Not Active = under 50% inhibition at 10 µM
Beta-1 adrenergic receptor, sequence (P08588 whole entry): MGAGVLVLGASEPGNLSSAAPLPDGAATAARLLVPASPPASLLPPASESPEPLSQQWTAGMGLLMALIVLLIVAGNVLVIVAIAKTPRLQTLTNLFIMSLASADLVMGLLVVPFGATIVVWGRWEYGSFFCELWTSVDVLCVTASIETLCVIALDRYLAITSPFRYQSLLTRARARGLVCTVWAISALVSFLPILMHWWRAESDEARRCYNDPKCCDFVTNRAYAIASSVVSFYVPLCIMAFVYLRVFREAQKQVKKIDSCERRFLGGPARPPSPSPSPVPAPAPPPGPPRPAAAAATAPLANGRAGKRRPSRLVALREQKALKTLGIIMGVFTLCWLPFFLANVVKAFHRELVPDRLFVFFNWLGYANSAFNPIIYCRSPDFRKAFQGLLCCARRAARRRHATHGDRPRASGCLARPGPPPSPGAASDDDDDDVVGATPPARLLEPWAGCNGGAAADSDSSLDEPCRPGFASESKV

[3] = biological target: Beta-3 adrenergic receptor (Homo sapiens, UniProt P13945); experiment: DRUGMATRIX: Adrenergic beta3 radioligand binding (ligand: [125I] Cyanopindolol); type: cell membranes, HEK293, Membrane; conditions: hek293; Not Active = under 50% inhibition at 10 µM
Beta-3 adrenergic receptor, sequence (P13945 whole entry): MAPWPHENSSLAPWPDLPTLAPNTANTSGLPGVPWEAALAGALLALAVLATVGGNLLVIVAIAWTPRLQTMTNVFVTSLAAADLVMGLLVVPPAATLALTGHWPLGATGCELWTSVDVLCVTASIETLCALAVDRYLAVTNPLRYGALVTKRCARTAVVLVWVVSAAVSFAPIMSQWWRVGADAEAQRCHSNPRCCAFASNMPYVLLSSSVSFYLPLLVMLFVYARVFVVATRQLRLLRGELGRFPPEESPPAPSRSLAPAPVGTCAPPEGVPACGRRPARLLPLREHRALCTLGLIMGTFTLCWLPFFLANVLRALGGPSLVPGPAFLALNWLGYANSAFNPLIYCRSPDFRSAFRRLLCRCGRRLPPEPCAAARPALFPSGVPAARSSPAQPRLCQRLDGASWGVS

[4] = biological target: Aldo-keto reductase family 1 member B1 (Rattus norvegicus, UniProt P07943); type: tissue-based, Lens of camera-type eye;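 note: inhibition of aldose reductase enzyme activity, measured with DL-glyceraldehyde as the substrate; in other assays of this panel Not Active means under 50% inhibition at 10 µM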
[5] = DRUGMATRIX: Calcium Channel Type L, Benzothiazepine radioligand binding (ligand: [3H] Diltiazem); type: cell membranes, Rattus norvegicus, Wistar, Brain, Membrane; conditions: Not Active = under 50% inhibition at 10 µM
[6] = DRUGMATRIX: Serotonin (5-Hydroxytryptamine) 5-HT3 radioligand binding (ligand: [3H] GR-65630); type: cell membranes, Membrane; conditions: hek293; Not Active = under 50% inhibition at 10 µM
[7] = biological target: 5-hydroxytryptamine receptor 4 (Cavia porcellus, UniProt O70528); type: cell membranes, Dunkin-Hartley, Striatum, Membrane; note: in other assays of this panel Not Active means under 50% inhibition at 10 µM
5-hydroxytryptamine receptor 4, sequence (O70528 whole entry): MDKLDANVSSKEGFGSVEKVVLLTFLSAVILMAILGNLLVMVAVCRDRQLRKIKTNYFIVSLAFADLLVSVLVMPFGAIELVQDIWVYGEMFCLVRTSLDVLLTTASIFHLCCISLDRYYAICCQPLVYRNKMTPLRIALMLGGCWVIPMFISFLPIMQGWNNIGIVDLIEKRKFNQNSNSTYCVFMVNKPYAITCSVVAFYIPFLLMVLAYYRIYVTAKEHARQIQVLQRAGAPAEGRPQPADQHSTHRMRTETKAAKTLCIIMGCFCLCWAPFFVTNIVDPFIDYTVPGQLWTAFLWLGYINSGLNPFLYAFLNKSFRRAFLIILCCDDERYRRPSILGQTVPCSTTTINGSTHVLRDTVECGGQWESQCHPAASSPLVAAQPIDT

[8] = biological target: Sigma non-opioid intracellular receptor 1 (Homo sapiens, UniProt Q99720); experiment: DRUGMATRIX: Sigma1 radioligand binding (ligand: [3H] Haloperidol); type: cell membranes, Jurkat, Membrane; conditions: jurkat; Not Active = under 50% inhibition at 10 µM
Sigma non-opioid intracellular receptor 1, sequence (Q99720 whole entry): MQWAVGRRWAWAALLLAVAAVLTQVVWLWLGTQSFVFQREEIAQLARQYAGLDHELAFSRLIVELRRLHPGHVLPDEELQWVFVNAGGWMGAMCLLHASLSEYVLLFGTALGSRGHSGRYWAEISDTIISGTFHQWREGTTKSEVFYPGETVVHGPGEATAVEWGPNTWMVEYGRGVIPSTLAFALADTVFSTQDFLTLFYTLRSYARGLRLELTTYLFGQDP

[9] = DRUGMATRIX: Tumor Necrosis Factor (TNF), Non-Selective radioligand binding (ligand: [125I] TNF-alpha); type: cell membranes, Membrane; conditions: u-937; Not Active = under 50% inhibition at 10 µM
[10] = DRUGMATRIX: Calcium Channel Type L, Phenylalkylamine radioligand binding (ligand: [3H] (-)-Desmethoxyverapamil (D-888)); type: cell membranes, Rattus norvegicus, Wistar, Brain, Membrane; conditions: Not Active = under 50% inhibition at 10 µM
[11] = biological target: T2, Cholecystokinin receptor type A (Homo sapiens, UniProt P32238); type: cell membranes, Membrane; conditions: 1321-n1; note: in other assays of this panel Not Active means under 50% inhibition at 10 µM
T2 sequence (P32238 whole entry): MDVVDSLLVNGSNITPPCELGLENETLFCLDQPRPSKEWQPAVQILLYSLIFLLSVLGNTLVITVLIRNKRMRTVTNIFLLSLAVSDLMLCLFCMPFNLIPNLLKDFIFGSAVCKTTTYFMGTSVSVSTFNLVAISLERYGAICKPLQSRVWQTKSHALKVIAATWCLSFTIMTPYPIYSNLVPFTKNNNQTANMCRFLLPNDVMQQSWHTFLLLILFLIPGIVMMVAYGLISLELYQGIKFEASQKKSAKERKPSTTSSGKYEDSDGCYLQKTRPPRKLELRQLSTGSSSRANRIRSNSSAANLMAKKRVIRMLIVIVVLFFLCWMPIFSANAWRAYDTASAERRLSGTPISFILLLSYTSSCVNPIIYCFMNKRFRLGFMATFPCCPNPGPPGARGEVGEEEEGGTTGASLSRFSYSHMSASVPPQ

[12] = DRUGMATRIX: GABAA, Muscimol, Central radioligand binding (ligand: [3H] Muscimol); type: cell membranes, Rattus norvegicus, Wistar, Brain, Membrane; conditions: Not Active = under 50% inhibition at 10 µM
[13] = DRUGMATRIX: GABAA, Flunitrazepam, Central radioligand binding (ligand: [3H] Flunitrazepam); type: cell membranes, Rattus norvegicus, Wistar, Brain, Membrane; conditions: Not Active = under 50% inhibition at 10 µM
[14] = DRUGMATRIX: Imidazoline I2, Central radioligand binding (ligand: [3H] Idazoxan); type: cell membranes, Rattus norvegicus, Wistar, Cerebral cortex, Membrane; conditions: Not Active = under 50% inhibition at 10 µM
Insulin receptor = Insulin receptor (Rattus norvegicus, UniProt P15127); type: cell membranes, Wistar, Liver, Membrane; note: in other assays of this panel Not Active means under 50% inhibition at 10 µM
Insulin receptor, sequence (P15127 27-759 limits assumed): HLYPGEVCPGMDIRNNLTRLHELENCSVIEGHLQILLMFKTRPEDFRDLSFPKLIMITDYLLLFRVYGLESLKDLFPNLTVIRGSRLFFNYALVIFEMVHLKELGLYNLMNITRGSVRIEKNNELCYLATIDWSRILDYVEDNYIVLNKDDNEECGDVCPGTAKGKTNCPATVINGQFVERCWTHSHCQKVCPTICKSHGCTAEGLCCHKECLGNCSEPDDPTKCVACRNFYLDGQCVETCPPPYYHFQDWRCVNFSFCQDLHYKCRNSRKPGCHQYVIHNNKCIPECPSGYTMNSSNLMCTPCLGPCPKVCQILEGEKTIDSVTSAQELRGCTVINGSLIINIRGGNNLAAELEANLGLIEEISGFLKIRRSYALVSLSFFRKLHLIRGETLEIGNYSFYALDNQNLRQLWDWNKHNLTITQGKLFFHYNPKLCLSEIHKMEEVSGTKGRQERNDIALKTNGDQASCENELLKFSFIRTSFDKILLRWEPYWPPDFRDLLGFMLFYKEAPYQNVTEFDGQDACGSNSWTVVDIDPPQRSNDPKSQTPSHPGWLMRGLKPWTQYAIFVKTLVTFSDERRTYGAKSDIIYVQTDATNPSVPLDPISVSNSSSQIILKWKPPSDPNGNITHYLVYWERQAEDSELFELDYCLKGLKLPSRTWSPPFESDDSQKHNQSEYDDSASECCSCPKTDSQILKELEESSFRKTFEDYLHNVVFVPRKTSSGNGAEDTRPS
Insulin receptor, sequence (P15127 764-1383 limits assumed): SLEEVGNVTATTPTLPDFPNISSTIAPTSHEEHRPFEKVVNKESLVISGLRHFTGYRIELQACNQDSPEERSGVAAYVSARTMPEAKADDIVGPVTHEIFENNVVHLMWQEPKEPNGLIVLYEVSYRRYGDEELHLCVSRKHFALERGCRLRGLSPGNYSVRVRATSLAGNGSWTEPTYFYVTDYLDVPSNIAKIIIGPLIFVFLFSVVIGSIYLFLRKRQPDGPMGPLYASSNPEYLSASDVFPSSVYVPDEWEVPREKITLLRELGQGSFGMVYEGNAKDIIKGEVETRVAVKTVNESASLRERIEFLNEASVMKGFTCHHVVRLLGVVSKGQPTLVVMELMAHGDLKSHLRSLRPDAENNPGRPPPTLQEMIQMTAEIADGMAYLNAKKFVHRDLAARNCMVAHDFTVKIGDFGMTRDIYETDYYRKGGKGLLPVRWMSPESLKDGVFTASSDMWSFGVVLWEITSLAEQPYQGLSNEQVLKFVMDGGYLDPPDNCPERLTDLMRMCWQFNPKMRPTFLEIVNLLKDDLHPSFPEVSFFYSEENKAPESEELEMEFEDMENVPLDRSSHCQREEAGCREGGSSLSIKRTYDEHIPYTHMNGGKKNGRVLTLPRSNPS

Melanocortin receptor 4 = Melanocortin receptor 4 (Homo sapiens, UniProt P32245); type: cell membranes, Membrane; conditions: hek293; note: in other assays of this panel Not Active means under 50% inhibition at 10 µM
Melanocortin receptor 4, sequence (P32245 whole entry): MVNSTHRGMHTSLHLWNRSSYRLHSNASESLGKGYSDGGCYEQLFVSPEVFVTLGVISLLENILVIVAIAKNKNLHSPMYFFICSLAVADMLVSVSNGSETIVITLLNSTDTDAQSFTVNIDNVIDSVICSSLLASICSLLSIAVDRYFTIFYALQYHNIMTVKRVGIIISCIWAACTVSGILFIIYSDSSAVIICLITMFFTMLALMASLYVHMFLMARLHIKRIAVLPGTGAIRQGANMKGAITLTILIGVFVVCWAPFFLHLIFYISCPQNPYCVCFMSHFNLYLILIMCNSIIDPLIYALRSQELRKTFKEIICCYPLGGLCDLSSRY

[15] = biological target: Kappa-type opioid receptor (Homo sapiens, UniProt P41145); experiment: DRUGMATRIX: Opiate kappa (OP2, KOP) radioligand binding (ligand: [3H] Diprenorphine); type: cell membranes, HEK293, Membrane; conditions: hek293; Not Active = under 50% inhibition at 10 µM
Kappa-type opioid receptor, sequence (P41145 whole entry): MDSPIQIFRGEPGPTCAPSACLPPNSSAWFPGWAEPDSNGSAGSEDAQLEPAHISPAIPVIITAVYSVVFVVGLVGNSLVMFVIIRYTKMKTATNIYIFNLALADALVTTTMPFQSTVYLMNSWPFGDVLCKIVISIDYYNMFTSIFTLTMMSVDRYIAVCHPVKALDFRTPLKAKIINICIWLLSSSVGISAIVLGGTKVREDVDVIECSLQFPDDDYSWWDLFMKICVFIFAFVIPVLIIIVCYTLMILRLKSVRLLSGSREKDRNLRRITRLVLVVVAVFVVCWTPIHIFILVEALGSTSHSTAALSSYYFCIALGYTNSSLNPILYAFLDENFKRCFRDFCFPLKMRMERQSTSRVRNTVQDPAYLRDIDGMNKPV

Mu-type opioid receptor = Mu-type opioid receptor (Homo sapiens, UniProt P35372); experiment: DRUGMATRIX: Opiate mu (OP3, MOP) radioligand binding (ligand: [3H] Diprenorphine); type: cell membranes, CHO-K1, Membrane; conditions: cho-k1; Not Active = under 50% inhibition at 10 µM
Mu-type opioid receptor, sequence (P35372 whole entry): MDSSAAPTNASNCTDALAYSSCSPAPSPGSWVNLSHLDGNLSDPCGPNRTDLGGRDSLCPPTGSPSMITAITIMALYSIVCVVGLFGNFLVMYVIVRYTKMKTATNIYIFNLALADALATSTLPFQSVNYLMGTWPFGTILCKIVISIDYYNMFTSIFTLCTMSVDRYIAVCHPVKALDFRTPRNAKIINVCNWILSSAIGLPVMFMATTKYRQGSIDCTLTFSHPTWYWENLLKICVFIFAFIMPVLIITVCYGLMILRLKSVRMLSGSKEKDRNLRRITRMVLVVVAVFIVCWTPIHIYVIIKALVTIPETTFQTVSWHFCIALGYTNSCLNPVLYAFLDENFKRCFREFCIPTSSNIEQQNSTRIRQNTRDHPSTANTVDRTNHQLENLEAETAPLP

[16] = biological target: T3, 5-hydroxytryptamine receptor 1A (Rattus norvegicus, UniProt P19327); type: cell membranes, CHO-K1, Membrane; conditions: cho-k1; note: in other assays of this panel Not Active means under 50% inhibition at 10 µM
T3 sequence (P19327 whole entry): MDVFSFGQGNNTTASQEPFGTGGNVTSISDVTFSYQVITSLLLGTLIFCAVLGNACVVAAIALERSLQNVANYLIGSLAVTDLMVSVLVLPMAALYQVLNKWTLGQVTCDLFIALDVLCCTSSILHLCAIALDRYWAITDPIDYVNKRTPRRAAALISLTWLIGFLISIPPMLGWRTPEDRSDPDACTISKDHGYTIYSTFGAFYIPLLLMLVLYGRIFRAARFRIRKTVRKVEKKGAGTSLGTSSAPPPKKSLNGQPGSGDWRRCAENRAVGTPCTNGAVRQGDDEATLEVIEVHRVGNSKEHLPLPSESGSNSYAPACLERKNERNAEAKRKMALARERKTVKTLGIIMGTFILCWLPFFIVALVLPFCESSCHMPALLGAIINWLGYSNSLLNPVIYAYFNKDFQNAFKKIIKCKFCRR

[17] = biological target: 5-hydroxytryptamine receptor 1B (Rattus norvegicus, UniProt P28564); type: cell membranes, Wistar, Cerebral cortex, Membrane; note: in other assays of this panel Not Active means under 50% inhibition at 10 µM
5-hydroxytryptamine receptor 1B, sequence (P28564 whole entry): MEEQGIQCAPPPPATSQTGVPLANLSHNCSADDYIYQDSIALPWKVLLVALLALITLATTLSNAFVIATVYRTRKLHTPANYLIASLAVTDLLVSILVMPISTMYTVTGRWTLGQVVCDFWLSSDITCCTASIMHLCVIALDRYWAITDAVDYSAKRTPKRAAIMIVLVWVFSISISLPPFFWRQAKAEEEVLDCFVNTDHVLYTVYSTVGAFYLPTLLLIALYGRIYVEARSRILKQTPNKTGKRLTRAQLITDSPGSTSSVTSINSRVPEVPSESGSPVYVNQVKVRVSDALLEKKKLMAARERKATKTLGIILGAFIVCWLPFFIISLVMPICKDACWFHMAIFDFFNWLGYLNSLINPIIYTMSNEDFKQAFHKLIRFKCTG

C=CC[C@@H]1/C=C(\C)C[C@H](C)C[C@H](OC)[C@H]2O[C@@](O)(C(=O)C(=O)N3CCCC[C@H]3C(=O)O[C@H](/C(C)=C/[C@@H]3CC[C@@H](O)[C@H](OC)C3)[C@H](C)[C@@H](O)CC1=O)[C@H](C)C[C@@H]2OC [TACROLIMUS ANHYDROUS]
Not Active: IC50 [1] | IC50 [2] | IC50 [3] | IC50 [4] | IC50 [5] | Ki [5] | IC50 [6] | Ki [6] | IC50 [7] | IC50 [8] | IC50 [9] | Ki [9] | IC50 [10] | Ki [10] | IC50 [11] | IC50 [12] | Ki [12] | IC50 [13] | Ki [13] | IC50 [14] | Ki [14] | IC50 (Insulin receptor) | IC50 (Melanocortin receptor 4) | IC50 [15] | IC50 (Mu-type opioid receptor) | IC50 [16] | IC50 [17]

c1ccc2[nH]c(-c3cscn3)nc2c1 [THIABENDAZOLE]
Not Active: IC50 [1] | IC50 [2] | IC50 [3] | IC50 [4] | IC50 [5] | Ki [5] | IC50 [6] | Ki [6] | IC50 [7] | IC50 [8] | IC50 [9] | Ki [9] | IC50 [10] | Ki [10] | IC50 [11] | IC50 [12] | Ki [12] | IC50 [13] | Ki [13] | IC50 [14] | Ki [14] | IC50 (Insulin receptor) | IC50 (Melanocortin receptor 4) | IC50 [15] | IC50 (Mu-type opioid receptor) | IC50 [16] | IC50 [17]

Cc1cc(NS(=O)(=O)c2ccc(N)cc2)no1 [SULFAMETHOXAZOLE]
Not Active: IC50 [1] | IC50 [2] | IC50 [3] | IC50 [4] | IC50 [5] | Ki [5] | IC50 [6] | Ki [6] | IC50 [7] | IC50 [8] | IC50 [9] | Ki [9] | IC50 [10] | Ki [10] | IC50 [11] | IC50 [12] | Ki [12] | IC50 [13] | Ki [13] | IC50 [14] | Ki [14] | IC50 (Insulin receptor) | IC50 (Melanocortin receptor 4) | IC50 [15] | IC50 (Mu-type opioid receptor) | IC50 [16] | IC50 [17]

COc1c(C)c2c(c(O)c1C/C=C(\C)CCC(=O)OCCN1CCOCC1)C(=O)OC2 [MYCOPHENOLATE MOFETIL]
Not Active: IC50 [1] | IC50 [2] | IC50 [3] | IC50 [4] | IC50 [5] | Ki [5] | IC50 [6] | Ki [6] | IC50 [7] | IC50 [8] | IC50 [9] | Ki [9] | IC50 [10] | Ki [10] | IC50 [11] | IC50 [12] | Ki [12] | IC50 [13] | Ki [13] | IC50 [14] | Ki [14] | IC50 (Insulin receptor) | IC50 (Melanocortin receptor 4) | IC50 [15] | IC50 (Mu-type opioid receptor) | IC50 [16] | IC50 [17]

Nc1ccc(S(=O)(=O)Nc2ccnn2-c2ccccc2)cc1 [SULFAPHENAZOLE]
Not Active: IC50 [1] | IC50 [2] | IC50 [3] | IC50 [4] | IC50 [5] | Ki [5] | IC50 [6] | Ki [6] | IC50 [7] | IC50 [8] | IC50 [9] | Ki [9] | IC50 [10] | Ki [10] | IC50 [11] | IC50 [12] | Ki [12] | IC50 [13] | Ki [13] | IC50 [14] | Ki [14] | IC50 (Insulin receptor) | IC50 (Melanocortin receptor 4) | IC50 [15] | IC50 (Mu-type opioid receptor) | IC50 [16] | IC50 [17]

CC1CN(c2cc3c(cc2F)c(=O)c(C(=O)O)cn3-c2ccc(F)cc2F)CCN1 (configuration not stated) [TEMAFLOXACIN]
Not Active: IC50 [1] | IC50 [2] | IC50 [3] | IC50 [4] | IC50 [5] | Ki [5] | IC50 [6] | Ki [6] | IC50 [7] | IC50 [8] | IC50 [9] | Ki [9] | IC50 [10] | Ki [10] | IC50 [11] | IC50 [12] | Ki [12] | IC50 [13] | Ki [13] | IC50 [14] | Ki [14] | IC50 (Insulin receptor) | IC50 (Melanocortin receptor 4) | IC50 [15] | IC50 (Mu-type opioid receptor) | IC50 [16] | IC50 [17]
